Source: patent US9006185B2, “Use of cell-permeable peptide inhibitors of the JNK signal transduction pathway for the treatment of various diseases” (Xigen Inflammation Ltd., priority 2008, dated 2015)
“Also recorded” adds a separate entry of the source.

Tests used:
[1] = kept at 4-8° C
Experimental: Unused diluted material could be stored for up to 7 days if kept at 4-8° C. c) Experimental Procedure

[2] = tested on: Aβ1-40 and Aβ1-42; assay: Aβ1-40 and Aβ1-42 ELISA in brain homogenate fractions and CSF of hAPP Tg mice; assay type: in vivo
Experimental: iv) Treatment • Forty female hAPP transgenic mice were treated with either 0.1 mg/kg b.w./every two weeks or 10 mg/kg b.w./every three weeks of the test substance XG-102 (SEQ ID NO: 11) in two different dosages (n=12/group) or treated with the vehicle (n=12) s.c. once every three weeks over four months.
vi) Tissue Sampling • At the end of the treatment period, and following all behavioral testing, all remaining mice (n=28) were sacrificed. Therefore, all mice were sedated by standard inhalation anesthesia (Isofluran, Baxter) as described in SOP MET030. Cerebrospinal fluid (CSF) was obtained by blunt dissection and exposure of the foramen magnum. Upon exposure, a Pasteur pipette was inserted to the approximate depth of 0.3-1 mm into the foramen magnum. CSF was collected by suctioning and capillary action until flow fully ceases. Two aliquots of each sample were immediately frozen and kept at −80° C. until ready for further analysis with ELISA technique. After CSF sampling, each mouse was placed in dorsal recumbence, thorax was opened and a 26-gauge needle attached to a 1 cc syringe was inserted into the right cardiac ventricular chamber. Light suction was applied to the needle and blood was collected into EDTA and consequently used to obtain plasma. To get plasma, blood samples from each mouse were spun at 1,750 rpm (700 g) for 10 minutes in a centrifuge (GS-6R Beckman) using a rotor with swing buckets (GH—3.8 Beckman). Plasma was frozen and stored at −20° C. until further analysis. After blood sampling transgenic mice were intracardially perfused with 0.9% sodium chloride. Brains were rapidly removed the cerebellum was cut off. The right hemispheres of all mice were immersion fixed in freshly produced 4% Paraformaldehyde/PBS (pH 7.4) for one hour at room temperature. Thereafter brains were transferred to a 15% sucrose PBS solution for 24 hours to ensure cryoprotection. […]
vii) Determination of Aβ1-40 and Aβ1-42 • In four different brain homogenate fractions of each Tg mouse as well as in CSF samples the Aβ1-40 and Aβ1-42 levels were evaluated with ELISA technique. […]

**Q.** With `CC(C)C[C@@H](NC(=O)[C@@H](Cc1ccccc1)NC(=O)[C@H]1CCCN1C(=O)[C@@H](CCC(N)=O)NC(=O)[C@H](NC(=O)[C@H]1CCCN1C(=O)[C@@H](CCCNC(=N)N)NC(=O)[C@@H](CO)NC(=O)[C@@H](CCC(N)=O)NC(=O)[C@H](N)CC(=O)O)C(C)C)C(=O)N[C@H](CC(N)=O)C(=O)N[C@H](CC(C)C)C(=O)N[C@@H](C(=O)N[C@@H](C(=O)N1CCC[C@@H]1C(=O)N[C@H](CCCNC(=N)N)C(=O)N[C@H](CCCCN)C(=O)N1CCC[C@@H]1C(=O)N[C@H](CCCNC(=N)N)C(=O)N1CCC[C@@H]1C(=O)N1CCC[C@@H]1C(=O)N[C@H](CCCNC(=N)N)C(=O)N[C@H](CCCNC(=N)N)C(=O)N[C@H](CCCNC(=N)N)C(=O)N[C@H](CCC(N)=O)C(=O)N[C@H](CCCNC(=N)N)C(=O)N[C@H](CCCNC(=N)N)C(=O)N[C@H](CCCCN)C(=O)N[C@H](CCCCN)C(=O)N[C@H](CCCNC(=N)N)C(=O)NCC(=O)O)[C@H](C)O)[C@H](C)O` [XG-102] as the compound, how does the “storage of unused diluted material” value [1] read?
**A.** up to 7 days

**Q.** What about the “brain homogenate Aβ1-40 levels” value ([2]; both dosages) of the same compound?
**A.** did not affect brain homogenate Aβ1-40 levels

**Q.** What about the “CSF Aβ1-40 and Aβ1-42 levels” value ([2]; both dosages, p<0.01 10 mg/kg, <0.05 low dosage) of the same compound?
**A.** a significant decrease of Aβ1-40 and Aβ1-42 in CSF; also recorded: significantly decreased in CSF compared to vehicle group

**Q.** What about the “Aβ1-42 level in Triton X-100 fraction” value ([2]; low dose 0.1 mg/kg, p<0.05 vs vehicle) of the same compound?
**A.** a significant reduction compared to the vehicle group
